Measurements as given in US10023570B2 (Array BioPharma, Inc., priority 2015, dated 2018).
Counter-ions that a name gives are not always drawn.

biological target: human KDR protein in HEK-293 cells (Homo sapiens (Human), UniProt P35968); test: KDR Cell Assay (phospho-KDR in HEK-293 cells expressing inducible KDR); assay type: cell-based; conditions: pKDR Cell HEK 10% FBS IC50, HEK-293 cells expressing inducible KDR, VEGF stimulated, 10% FBS
Outline: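 HEK-293 cells with inducible human KDR were treated with compound for 1 h in DMEM (0.25% DMSO final), then lysed. Phospho-KDR was quantified by Meso Scale immunoassay, expressed as percent of control, and IC50 taken where a 4-parameter logistic fit crossed 50 POC.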

Chain of human KDR protein in HEK-293 cells (P35968 20-1356): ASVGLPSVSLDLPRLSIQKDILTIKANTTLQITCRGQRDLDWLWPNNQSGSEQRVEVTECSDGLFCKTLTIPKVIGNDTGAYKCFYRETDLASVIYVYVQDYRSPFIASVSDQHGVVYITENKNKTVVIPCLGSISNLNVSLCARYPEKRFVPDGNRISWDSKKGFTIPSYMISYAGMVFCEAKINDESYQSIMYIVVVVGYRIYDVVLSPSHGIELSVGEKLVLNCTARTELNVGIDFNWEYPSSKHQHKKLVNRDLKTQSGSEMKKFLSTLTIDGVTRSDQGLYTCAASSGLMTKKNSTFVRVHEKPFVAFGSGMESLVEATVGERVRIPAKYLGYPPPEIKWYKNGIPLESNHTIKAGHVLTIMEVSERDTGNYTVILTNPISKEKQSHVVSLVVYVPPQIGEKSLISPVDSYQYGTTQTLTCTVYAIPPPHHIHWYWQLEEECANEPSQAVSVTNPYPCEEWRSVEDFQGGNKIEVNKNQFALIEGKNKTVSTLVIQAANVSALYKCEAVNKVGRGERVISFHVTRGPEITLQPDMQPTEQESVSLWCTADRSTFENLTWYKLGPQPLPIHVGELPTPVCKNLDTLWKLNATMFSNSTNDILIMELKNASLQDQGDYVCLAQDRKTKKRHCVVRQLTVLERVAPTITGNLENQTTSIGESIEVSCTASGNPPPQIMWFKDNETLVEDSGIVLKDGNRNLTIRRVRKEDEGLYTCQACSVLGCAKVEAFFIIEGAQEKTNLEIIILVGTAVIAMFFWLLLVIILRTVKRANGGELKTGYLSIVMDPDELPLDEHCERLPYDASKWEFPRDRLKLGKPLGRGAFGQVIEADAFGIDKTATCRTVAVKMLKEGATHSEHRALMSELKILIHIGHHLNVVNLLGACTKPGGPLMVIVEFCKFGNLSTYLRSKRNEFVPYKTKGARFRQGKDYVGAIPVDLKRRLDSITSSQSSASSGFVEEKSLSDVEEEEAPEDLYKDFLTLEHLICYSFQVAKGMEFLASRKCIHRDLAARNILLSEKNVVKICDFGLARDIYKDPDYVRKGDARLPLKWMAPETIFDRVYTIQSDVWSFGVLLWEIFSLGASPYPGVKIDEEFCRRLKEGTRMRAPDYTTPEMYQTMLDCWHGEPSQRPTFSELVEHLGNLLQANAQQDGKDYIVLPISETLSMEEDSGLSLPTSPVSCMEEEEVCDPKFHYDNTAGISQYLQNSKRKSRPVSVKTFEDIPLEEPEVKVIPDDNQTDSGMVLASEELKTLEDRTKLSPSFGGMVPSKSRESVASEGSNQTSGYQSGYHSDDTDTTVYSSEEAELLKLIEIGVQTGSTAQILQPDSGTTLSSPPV

Row | Structure (SMILES) | IC50 [nM]
1 | Cn1cc(-c2cc(-c3ccc(N4CCNC5(CC5)C4)nc3)c3c(C#N)cnn3c2)cn1 [Example 167, 4-(6-(4,7-diazaspiro[2.5]octan-7-yl)pyridin-3-yl)-6-(1-methyl-1H-pyrazol-4-yl)pyrazolo[1,5-a]pyridine-3-carbonitrile dihydrochloride] | 780
2 | Cn1cc(-c2cc(-c3ccc(N4CCN(C(=O)CC(C)(C)O)C5(CC5)C4)nc3)c3c(C#N)cnn3c2)cn1 [Example 168, 4-(6-(4-(3-hydroxy-3-methylbutanoyl)-4,7-diazaspiro[2.5]octan-7-yl)pyridin-3-yl)-6-(1-methyl-1H-pyrazol-4-yl)pyrazolo[1,5-a]pyridine-3-carbonitrile] | 1090
3 | Cn1cc(-c2cc(-c3ccc(N4CCN(C(=O)CC(C)(C)C)C5(CC5)C4)nc3)c3c(C#N)cnn3c2)cn1 [Example 169, 4-(6-(4-(3,3-dimethylbutanoyl)-4,7-diazaspiro[2.5]octan-7-yl)pyridin-3-yl)-6-(1-methyl-1H-pyrazol-4-yl)pyrazolo[1,5-a]pyridine-3-carbonitrile] | 1440
4 | Cn1cc(-c2cc(-c3ccc(N4CC5CCC(C4)N5C(=O)OC(C)(C)C)nc3)c3c(C#N)cnn3c2)cn1 [Example 173, tert-butyl 3-(5-(3-cyano-6-(1-methyl-1H-pyrazol-4-yl)pyrazolo[1,5-a]pyridin-4-yl)pyridin-2-yl)-3,8-diazabicyclo[3.2.1]octane-8-carboxylate] | 1270
5 | Cn1cc(-c2cc(-c3ccc(N4CC5CCC(C4)N5)nc3)c3c(C#N)cnn3c2)cn1 [Example 174, 4-(6-(3,8-diazabicyclo[3.2.1]octan-3-yl)pyridin-3-yl)-6-(1-methyl-1H-pyrazol-4-yl)pyrazolo[1,5-a]pyridine-3-carbonitrile dihydrochloride] | 1220
6 | Cn1cc(-c2cc(-c3ccc(N4CCC(NC(=O)[C@H]5CCCO5)CC4)nc3)c3c(C#N)cnn3c2)cn1 [Example 178, (R)—N-(1-(5-(3-cyano-6-(1-methyl-1H-pyrazol-4-yl)pyrazolo[1,5-a]pyridin-4-yl)pyridin-2-yl)piperidin-4-yl)tetrahydrofuran-2-carboxamide] | 426
7 | Cn1cc(-c2cc(-c3ccc(N4CCC(NC(=O)[C@@H]5CCCO5)CC4)nc3)c3c(C#N)cnn3c2)cn1 [Example 182, (5)-N-(1-(5-(3-cyano-6-(1-methyl-1H-pyrazol-4-yl)pyrazolo[1,5-a]pyridin-4-yl)pyridin-2-yl)piperidin-4-yl)tetrahydrofuran-2-carboxamide] | 563
8 | Cn1cc(-c2cc(-c3ccc(N4CCC(NC(=O)c5ccccc5)CC4)nc3)c3c(C#N)cnn3c2)cn1 [Example 184, N-(1-(5-(3-cyano-6-(1-methyl-1H-pyrazol-4-yl)pyrazolo[1,5-a]pyridin-4-yl)pyridin-2-yl)piperidin-4-yl)benzamide] | 75.2
9 | Cn1cc(-c2cc(-c3ccc(N4CCC(N5CCCC5=O)CC4)nc3)c3c(C#N)cnn3c2)cn1 [Example 189, 6-(1-methyl-1H-pyrazol-4-yl)-4-(6-(4-(2-oxopyrrolidin-1-yl)piperidin-1-yl)pyridin-3-yl)pyrazolo[1,5-a]pyridine-3-carbonitrile] | 255
10 | Cn1cc(-c2cc(-c3ccc(N4CCC(N5CC[C@H](O)C5=O)CC4)nc3)c3c(C#N)cnn3c2)cn1 [Example 190, (S)-4-(6-(4-(3-hydroxy-2-oxopyrrolidin-1-yl)piperidin-1-yl)pyridin-3-yl)-6-(1-methyl-1H-pyrazol-4-yl)pyrazolo[1,5-a]pyridine-3-carbonitrile] | 277
11 | Cn1cc(-c2cc(-c3ccc(N4CCC(N5CCOC5=O)CC4)nc3)c3c(C#N)cnn3c2)cn1 [Example 191, 6-(1-methyl-1H-pyrazol-4-yl)-4-(6-(4-(2-oxooxazolidin-3-yl)piperidin-1-yl)pyridin-3-yl)pyrazolo[1,5-a]pyridine-3-carbonitrile] | 21.8
12 | Cn1cc(-c2cc(-c3ccc(N4[C@@H]5CC[C@H]4C[C@H](NC(=O)OC(C)(C)C)C5)nc3)c3c(C#N)cnn3c2)cn1 [Example 192, tert-butyl ((1R,3s,5S)-8-(5-(3-cyano-6-(1-methyl-1H-pyrazol-4-yl)pyrazolo[1,5-a]pyridin-4-yl)pyridin-2-yl)-8-azabicyclo[3.2.1]octan-3-yl)carbamate] | 932
13 | Cn1cc(-c2cc(-c3ccc(N4[C@@H]5CC[C@H]4C[C@@H](NC(=O)OC(C)(C)C)C5)nc3)c3c(C#N)cnn3c2)cn1 [Example 194, tert-butyl ((1R,3r,5S)-8-(5-(3-cyano-6-(1-methyl-1H-pyrazol-4-yl)pyrazolo[1,5-a]pyridin-4-yl)pyridin-2-yl)-8-azabicyclo[3.2.1]octan-3-yl)carbamate] | 242
14 | Cn1cc(-c2cc(-c3ccc(N4[C@@H]5CC[C@H]4C[C@@H](N)C5)nc3)c3c(C#N)cnn3c2)cn1 [Example 195, 4-(6-((1R,3r,5S)-3-amino-8-azabicyclo[3.2.1]octan-8-yl)pyridin-3-yl)-6-(1-methyl-1H-pyrazol-4-yl)pyrazolo[1,5-a]pyridine-3-carbonitrile dihydrochloride] | 247
15 | Cn1cc(-c2cc(-c3ccc(N4[C@@H]5CC[C@H]4C[C@@H](O)C5)nc3)c3c(C#N)cnn3c2)cn1 [Example 199, 4-(6-((1R,3r,5S)-3-hydroxy-8-azabicyclo[3.2.1]octan-8-yl)pyridin-3-yl)-6-(1-methyl-1H-pyrazol-4-yl)pyrazolo[1,5-a]pyridine-3-carbonitrile] | 565
16 | CO[C@H]1C[C@H]2CC[C@@H](C1)N2c1ccc(-c2cc(-c3cnn(C)c3)cn3ncc(C#N)c23)cn1 [Example 200, 4-(6-((1R,3r,5S)-3-methoxy-8-azabicyclo[3.2.1]octan-8-yl)pyridin-3-yl)-6-(1-methyl-1H-pyrazol-4-yl)pyrazolo[1,5-a]pyridine-3-carbonitrile] | 463
17 | Cn1cc(-c2cc(-c3ccc(N4CCC5(CCN(C(=O)OC(C)(C)C)C5)CC4)nc3)c3c(C#N)cnn3c2)cn1 [Example 204, tert-butyl 8-(5-(3-cyano-6-(1-methyl-1H-pyrazol-4-yl)pyrazolo[1,5-a]pyridin-4-yl)pyridin-2-yl)-2,8-diazaspiro[4.5]decane-2-carboxylate] | 429

Now from value to compound:

Row | IC50 [nM] | Structure (SMILES)
18 | 1200 | CC(C)[C@@H](O)C(=O)N1CCC2(CCN(c3ccc(-c4cc(-c5cnn(C)c5)cn5ncc(C#N)c45)cn3)CC2)C1 [Example 206, (R)-4-(6-(2-(2-hydroxy-3-methylbutanoyl)-2,8-diazaspiro[4.5]decan-8-yl)pyridin-3-yl)-6-(1-methyl-1H-pyrazol-4-yl)pyrazolo[1,5-a]pyridine-3-carbonitrile]
19 | 1960 | CC(C)C(=O)N1CCC2(CCN(c3ccc(-c4cc(-c5cnn(C)c5)cn5ncc(C#N)c45)cn3)CC2)C1 [Example 207, 4-(6-(2-isobutyryl-2,8-diazaspiro[4.5]decan-8-yl)pyridin-3-yl)-6-(1-methyl-1H-pyrazol-4-yl)pyrazolo[1,5-a]pyridine-3-carbonitrile]
20 | 4680 | Cn1cc(-c2cc(-c3ccc(N4CCCC5(CCN(C(=O)OC(C)(C)C)C5)C4)nc3)c3c(C#N)cnn3c2)cn1 (stereo not drawn) [Example 208, tert-butyl 7-(5-(3-cyano-6-(1-methyl-1H-pyrazol-4-yl)pyrazolo[1,5-a]pyridin-4-yl)pyridin-2-yl)-2,7-diazaspiro[4.5]decane-2-carboxylate]
21 | 597 | Cn1cc(-c2cc(-c3ccc(N4CCC5(CC4)CN(C(=O)OC(C)(C)C)C5)nc3)c3c(C#N)cnn3c2)cn1 [Example 214, tert-butyl 7-(5-(3-cyano-6-(1-methyl-1H-pyrazol-4-yl)pyrazolo[1,5-a]pyridin-4-yl)pyridin-2-yl)-2,7-diazaspiro[3.5]nonane-2-carboxylate]
22 | 574 | CC(C)[C@@H](O)C(=O)N1CC2(CCN(c3ccc(-c4cc(-c5cnn(C)c5)cn5ncc(C#N)c45)cn3)CC2)C1 [Example 216, (R)-4-(6-(2-(2-hydroxy-3-methylbutanoyl)-2,7-diazaspiro[3.5]nonan-7-yl)pyridin-3-yl)-6-(1-methyl-1H-pyrazol-4-yl)pyrazolo[1,5-a]pyridine-3-carbonitrile]
23 | 1670 | Cn1cc(-c2cc(-c3ccc(N4CCC5(CC4)CN(C(=O)c4ccccc4)C5)nc3)c3c(C#N)cnn3c2)cn1 [Example 217, 4-(6-(2-benzoyl-2,7-diazaspiro[3.5]nonan-7-yl)pyridin-3-yl)-6-(1-methyl-1H-pyrazol-4-yl)pyrazolo[1,5-a]pyridine-3-carbonitrile]
24 | 4790 | Cn1cc(-c2cc(-c3ccc(N4CCC5(CC4)CN(C(=O)Cc4ccccc4)C5)nc3)c3c(C#N)cnn3c2)cn1 [Example 218, 6-(1-methyl-1H-pyrazol-4-yl)-4-(6-(2-(2-phenylacetyl)-2,7-diazaspiro[3.5]nonan-7-yl)pyridin-3-yl)pyrazolo[1,5-a]pyridine-3-carbonitrile]
25 | 617 | CC(=O)N1CC2(CCN(c3ccc(-c4cc(-c5cnn(C)c5)cn5ncc(C#N)c45)cn3)CC2)C1 [Example 220, 4-(6-(2-acetyl-2,7-diazaspiro[3.5]nonan-7-yl)pyridin-3-yl)-6-(1-methyl-1H-pyrazol-4-yl)pyrazolo[1,5-a]pyridine-3-carbonitrile]
26 | 1660 | CC(C)C(=O)N1CC2(CCN(c3ccc(-c4cc(-c5cnn(C)c5)cn5ncc(C#N)c45)cn3)CC2)C1 [Example 221, 4-(6-(2-isobutyryl-2,7-diazaspiro[3.5]nonan-7-yl)pyridin-3-yl)-6-(1-methyl-1H-pyrazol-4-yl)pyrazolo[1,5-a]pyridine-3-carbonitrile]
27 | 257 | CC(C)OC(=O)N1CC2(CCN(c3ccc(-c4cc(-c5cnn(C)c5)cn5ncc(C#N)c45)cn3)CC2)C1 [Example 222, isopropyl 7-(5-(3-cyano-6-(1-methyl-1H-pyrazol-4-yl)pyrazolo[1,5-a]pyridin-4-yl)pyridin-2-yl)-2,7-diazaspiro[3.5]nonane-2-carboxylate]
